The values below come from ChEMBL document CHEMBL6182905, “Fluorinated sulfonamide-flavonoid derivatives as novel Keap1-Nrf2 inhibitors: Potent induction of cytoprotective gene HO-1 in vivo” (Eur J Med Chem, 2025).

Molecules are shown by their SMILES.

This experiment deals with AML12. The experiment can be described thus: Activation of Nrf2 in LPS-stimulated mouse AML12 cells assessed as fold increase in HO-1 gene expression at 10 uM incubated for 16 hrs. The class given is cell-based. Particulars: filed as activator.
With `COc1ccc(-c2cc(=O)c3ccc(NS(=O)(=O)c4ccc(OC)cc4)cc3o2)cc1`, the fold change (FC) was 4.6.
With `COc1ccc(-c2cc(=O)c3ccc(NS(=O)(=O)c4ccccc4F)cc3o2)cc1` the figure was 3.4; with `COc1ccc(-c2cc(=O)c3ccc(N(CC(N)=O)S(=O)(=O)c4ccc(OC)cc4)cc3o2)cc1`, 2.3.
With `COc1ccc(-c2cc(=O)c3ccc(NS(=O)(=O)c4c(C)c(C)cc(C)c4C)cc3o2)cc1` the figure was 2.8; with `CCCCOc1ccc(S(=O)(=O)Nc2ccc3c(=O)cc(-c4ccc(OC)cc4)oc3c2)cc1`, 2.3.
With `O=C1C[C@@H](c2ccc(O)cc2)Oc2cc(O)ccc21` the figure was 2; with `COc1ccc(-c2cc(=O)c3ccc(NS(=O)(=O)c4ccc(F)c(Br)c4)cc3o2)cc1`, 4.2.
As to `COc1ccc(-c2cc(=O)c3ccc(NS(=O)(=O)c4ccc(C(C)C)cc4)cc3o2)cc1`, the fold change (FC) was found to be 3.4.
With `COc1ccc(-c2cc(=O)c3ccc(NS(=O)(=O)c4cccc(F)c4)cc3o2)cc1` the figure was 4.5; with `COc1ccc(-c2cc(=O)c3ccc(NS(=O)(=O)c4ccc(F)cc4Br)cc3o2)cc1`, 3.2.
Consider `COC(=O)CN(c1ccc2c(=O)cc(-c3ccc(OC)cc3)oc2c1)S(=O)(=O)c1ccc(F)cc1`, for which the fold change (FC) turned out to be 4.8.
With `COc1ccc(-c2cc(=O)c3ccc(NS(=O)(=O)c4ccccc4OC)cc3o2)cc1` the figure was 3.3.
With `COc1ccc(-c2cc(=O)c3ccc(NS(=O)(=O)c4ccc(OC)cc4OC)cc3o2)cc1` the figure was 4; with `COc1ccc(-c2cc(=O)c3ccc(NS(=O)(=O)c4ccc(C)cc4C)cc3o2)cc1`, 3; with `O=C1c2c(O)cc(O)cc2O[C@H](c2cc(O)c(O)c(O)c2)[C@H]1O`, 1.4.
In the case of `COC(=O)CN(c1ccc2c(=O)cc(-c3ccc(OC)cc3)oc2c1)S(=O)(=O)c1ccc(C(F)(F)F)cc1`, the fold change (FC) is 2.6.
With `COC(=O)CN(c1ccc2c(=O)cc(-c3ccc(OC)cc3)oc2c1)S(=O)(=O)c1ccc(OC)cc1` the figure was 3.5; with `O=c1cc(-c2ccc(O)cc2)oc2cc(O)cc(O)c12`, 1.8; with `COc1ccc(-c2cc(=O)c3ccc(NS(=O)(=O)c4ccc([N+](=O)[O-])cc4)cc3o2)cc1`, 3.3.
With `COc1ccc(-c2cc(=O)c3ccc(NS(=O)(=O)c4ccc(C(F)(F)F)cc4)cc3o2)cc1` the figure was 4.8.
As for `COc1ccc(-c2cc(=O)c3ccc(NS(=O)(=O)c4ccccc4OC(F)(F)F)cc3o2)cc1`, the fold change (FC) was determined as 3.9.
With `COc1ccc(-c2cc(=O)c3ccc(NS(=O)(=O)c4cccnc4)cc3o2)cc1` the figure was 5.3; with `COc1ccc(-c2cc(=O)c3ccc(NS(=O)(=O)c4cccc(OC)c4)cc3o2)cc1`, 3.7.
With `COc1ccc(-c2cc(=O)c3ccc(NS(=O)(=O)c4ccc(F)cc4Cl)cc3o2)cc1` the figure was 3.6; with `COc1ccc(-c2cc(=O)c3ccc(NS(=O)(=O)c4ccc(F)c(Cl)c4)cc3o2)cc1`, 4.
As for `COc1ccc(-c2cc(=O)c3ccc(NS(=O)(=O)c4cccs4)cc3o2)cc1`, the fold change (FC) amounted to 3.4.
With `O=c1c(O)c(-c2ccc(O)c(O)c2)oc2cc(O)cc(O)c12` the figure was 1.4; with `COc1ccc(-c2cc(=O)c3ccc(NS(=O)(=O)c4ccc(C)cc4)cc3o2)cc1`, 3.1; with `CCc1ccc(S(=O)(=O)Nc2ccc3c(=O)cc(-c4ccc(OC)cc4)oc3c2)cc1`, 5.
With `COc1ccc(-c2cc(=O)c3ccc(NS(=O)(=O)c4ccc(OC(F)(F)F)cc4)cc3o2)cc1` the figure was 7; with `C[S+]([O-])CCCCN=C=S` (configuration not stated), 5.8.
With `COc1ccc(-c2cc(=O)c3ccc(NS(=O)(=O)c4cccc(OC(F)(F)F)c4)cc3o2)cc1` the figure was 4.2.
